Columns and labels:
[1] = test system: Daudi (Burkitt Lymphoma) cells; experiment: Intracellular Lactate Accumulation Assay (Lactate-Glo); type: cell-based, human
Procedure: Intracellular lactate accumulation after a 2 h treatment with compounds of the present invention was measured in Daudi (Burkitt Lymphoma) cells using the Lactate-Glo Assay (Promega).
Daudi cells were seeded at 7,500 cells per well in 150 μL of growth medium (RPMI-1640 with 2 mM GlutaMAX+10% FBS) in clear, 96-well, flat-bottom microplates, and incubated overnight (37° C., 5% CO2). Compounds of the present invention were added using an INTEGRA VIAFLO 96 (8 point, 3-fold serial dilution, top concentration 1, 10, or 20 μM, 0.4% final DMSO concentration). After a 2 h incubation (37° C., 5% CO2) microplates containing cells were washed twice with 150 μL ice-cold PBS, resuspended in 25 μL ice-cold PBS containing 12.5 μL 0.6N HCl, and placed on a microplate shaker for 5 min to lyse the cells. Following lysis, 12.5 μL 1M Trizma base was added to neutralize the suspension, and microplates were returned to the microplate shaker for 1 min. Plates were sealed and stored at −20° C. until further processing. On the day of the assay, microplates were thawed for 45 min at room temperate and 50 μL Lactate Detection Reagent (prepared as specified by manufacturer) was added to each well. Microplates were placed on a plate shaker for 1 min and incubated at room temperature for 1 h. Luminescence was measured using a BioTek Cytation 5 Multi-Mode Reader. Curve fitting and calculation of EC50 was performed using GraphPad Prism.
In addition, Daudi human lymphoma cells were treated with a titration of Compound 67A for 4 h, then intracellular lactate was measured via LactateGlo (FIG. 2). Compound 67A treatment elevates intracellular lactate (FIGS. 3-5). […] Inhibiting MCT function in glycolytic cancer cells leads to an accumulation of intracellular lactate that impairs glycolysis and inhibits tumor cell growth, thereby making MCTs an attractive target for cancer therapy. Compound 67A inhibits the import of MCT ligands into cells, and induces dose-dependent intracellular lactate accumulation that correlates with cytotoxicity. MCT4 expression inversely correlates with lactate accumulation and the extent of Compound 67A cytotoxicity in cells.

[2] = test system: Pfeiffer; experiment: Compound 67A sensitivity of CRISPR screen cell line Pfeiffer; type: cell-based; details: Homo sapiens, Lymphoma
Description: (§1) Three cell lines with varying sensitivities to Compound 67A were utilized in the CRISPR screen (Table 3, FIG. 11).

[3] = test system: T47D; experiment: Compound 67A sensitivity / cell growth inhibition of CRISPR screen cell line T47D; type: cell-based
Description: as §1
Screen hits (FDR<0.2) were identified using the drugZ algorithm (FIG. 13). MCT4 was the most significant hit consistent between the SU8686 and T47D cell lines, sensitizing both lines to Compound 67A treatment.

[4] = test system: SU8686; experiment: Compound 67A sensitivity of CRISPR screen cell line SU8686; type: cell-based; details: Homo sapiens, SU.86.86; SU8686, Pancreatic Cancer
Description: as §1

[5] = target: T1, MCT1/BSG complex (Homo sapiens, UniProt P53985); experiment: Microscale thermophoresis (MST) direct binding; details: purified hexahistidine-tagged MCT1/BSG complex, read-out: Kd, binding to MCT1/basigin
T1 sequence (P53985 1-500): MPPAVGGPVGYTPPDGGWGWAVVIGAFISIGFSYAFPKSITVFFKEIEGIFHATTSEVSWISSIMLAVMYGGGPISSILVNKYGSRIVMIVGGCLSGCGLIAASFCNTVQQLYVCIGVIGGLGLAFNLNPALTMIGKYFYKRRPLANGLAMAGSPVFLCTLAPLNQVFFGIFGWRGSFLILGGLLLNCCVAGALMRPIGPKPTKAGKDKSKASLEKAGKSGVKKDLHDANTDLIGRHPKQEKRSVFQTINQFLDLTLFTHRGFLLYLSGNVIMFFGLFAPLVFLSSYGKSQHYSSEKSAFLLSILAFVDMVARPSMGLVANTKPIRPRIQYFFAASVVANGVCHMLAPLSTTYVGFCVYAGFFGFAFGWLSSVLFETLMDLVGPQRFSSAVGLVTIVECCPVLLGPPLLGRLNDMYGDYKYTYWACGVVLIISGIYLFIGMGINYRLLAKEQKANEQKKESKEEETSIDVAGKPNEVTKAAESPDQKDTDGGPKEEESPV
T1 sequence (P35613 140-385 partner limits assumed): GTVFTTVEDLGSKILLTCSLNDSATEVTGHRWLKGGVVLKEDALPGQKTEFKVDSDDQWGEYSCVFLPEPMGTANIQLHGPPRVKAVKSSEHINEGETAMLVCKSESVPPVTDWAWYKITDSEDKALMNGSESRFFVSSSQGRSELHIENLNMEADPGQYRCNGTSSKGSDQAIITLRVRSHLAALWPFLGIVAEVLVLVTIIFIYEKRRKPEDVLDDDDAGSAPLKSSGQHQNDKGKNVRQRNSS
Description: Microscale thermophoresis (MST) monitors the solution phase change in protein fluorescence and mobility in response to a temperature gradient created with an infrared laser. The method is compatible with detergent solubilized proteins and enables measurement of direct ligand binding.
Purified hexahistidine-tagged MCT1/BSG complex was mixed with a hexahistidine interacting fluorescent dye and MST was monitored as a function of compound concentration.

[6] = test system: Daudi human lymphoma cells; experiment: Reversal of 3-bromopyruvate-induced cytotoxicity; type: cell-based; details: 3-bromopyruvate (MCT1 substrate)
Procedure: Compound 67A data across 439 cell lines was cross-compared with available DepMap gene essentiality data and gene expression data. A genome-wide CRISPR screen identified genes that influenced sensitivity to Compound 67A. MDCKII cells expressing human MCT1 were treated with Compound 67A and transport of the MCT1 substrate, 2-thiophene-glyoxylic acid, was quantified by LC-MS. Compound 67A-mediated reversal of cytotoxicity induced by 3-bromopyruvate, an MCT1 substrate, was measured in Daudi human lymphoma cells. Lactate was measured using Lactate-Glo. Extracellular acidification and O2 consumption were measured by Seahorse.

[7] = test system: ES2 ovarian cancer cell line; experiment: ES2 cytotoxicity (Cytotox Green) and cell viability (CellTiterGlo, NCI method); type: cell-based
Procedure: MCT4 was over-expressed in ES2 cells following lentiviral transduction. Cell viability was assessed in empty vector (EV) control and MCT4 over-expressing cells after Compound 67A treatment and relative cell growth was quantified using the NCI method (FIG. 10).
The ES2 ovarian cancer cell line was treated with a titration of Compound 67A, and cytotoxicity was assessed after 24 hours of treatment with Cytotox Green and cell viability after 96 hours with CellTiterGlo (FIG. 18).

[8] = test system: Raji lymphoma cells; experiment: Seahorse XF ECAR and OCR measurement; type: cell-based; details: Seahorse XF Analyzer
Procedure: The utilization of glycolysis and oxidative phosphorylation (OXPHOS) were measured by the extracellular acidification rate (ECAR) and oxygen consumption rate (OCR), respectively, in Raji lymphoma cells via the Seahorse XF Analyzer.

IC50 ([1]; Daudi human lymphoma cells, 4 h treatment, LactateGlo, read-out: induces lactate accumulation, IC50): 370 nM
EC50 ([1]; Homo sapiens, Daudi cells, 2 h treatment, intracellular lactate accumulation, read-out: LactateGlo EC50): 150 to 1000 nM
IC50 [2]: 520 nM
IC50 ([3]; Homo sapiens, T47D, Breast Cancer): 5.86 µM
IC50 [4]: > 20 µM
Kd [5]: 89 nM
SMILES: CC(C)OC(=O)Nc1ccc(-c2cnc([C@H]3CC[C@H](NC(=O)OC(C)C)CC3)s2)c(S(=O)(=O)NC(C)(C)C)c1 [Compound 67A]
effect of MCT4 knockout on cell growth inhibition ([3]; T47D cells, MCT4 knockout): enhanced Compound 67A-mediated cell growth inhibition
protection from cytotoxic effects of 3-bromopyruvate [6]: protected cells from the cytotoxic effects of 3-bromopyruvate
cytotoxic response ([7]; ES2, Cytotox Green after 24 hours and CellTiterGlo after 96 hours): induced a clear cytotoxic response
effect of MCT4 over-expression on anti-proliferative effects ([7]; ES2 MCT4 over-expressing vs empty vector control, NCI method): significantly reduced Compound 67A-mediated anti-proliferative effects
extracellular acidification rate (ECAR) [8]: dose-dependent decrease in ECAR
oxygen consumption rate (OCR) [8]: concomitant increase in OCR

Reference: US20250186404A1, “METHODS OF USING A (THIAZOLYL)BENZENESULFONAMIDE DERIVATIVE” (Cyteir Therapeutics, Inc., priority 2023, published 2025)
